# Results from article PMC2742562 (ACS chemical biology, 2009).
# Molecular target: glucose/galactose binding protein (GGBP) (Escherichia coli, UniProt P0AEE5)
# Experiment: […] galactose competition binding assay
# Sequence of glucose/galactose binding protein (GGBP) (P0AEE5 24-332 limits assumed): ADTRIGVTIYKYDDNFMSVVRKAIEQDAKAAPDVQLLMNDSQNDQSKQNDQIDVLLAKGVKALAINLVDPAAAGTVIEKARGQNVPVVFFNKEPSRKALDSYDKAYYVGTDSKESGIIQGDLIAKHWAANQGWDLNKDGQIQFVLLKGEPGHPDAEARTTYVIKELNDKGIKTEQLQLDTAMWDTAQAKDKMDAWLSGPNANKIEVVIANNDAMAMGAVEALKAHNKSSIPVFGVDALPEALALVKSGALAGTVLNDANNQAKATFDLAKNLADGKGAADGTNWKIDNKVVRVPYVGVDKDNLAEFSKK
compound,measurement,value
"OC[C@H]1O[C@@H](OCCO[C@H]2[C@H](O)[C@@H](CO)OC(O)[C@@H]2O)[C@H](O)[C@@H](O)[C@@H]1O (stereo partly drawn) [DWI, 3-O-(2'-beta-D-glucopyanosyloxyethyl)-D-glucose]",Ki,27 ± 7 µM
